# Counter-ions that a name gives are not always drawn.
# Target: T1, human recombinant HPK1 (Homo sapiens, UniProt Q92918)
# T1 construct: purchased BPS Bioscience
# Experiment: Inhibitory activity against human recombinant HPK1 (TR-FRET)
# Format: biochemical
# Conditions: ULight-p70S6K peptide, ATP at Km, room temperature, 1 hour, 0.32 to 1000 nM compound
# Method in brief: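 Recombinant human HPK1 with ULight-p70S6K peptide and ATP at Km, 1 h at room temperature in HEPES pH 7.4 buffer with Mg2+, Mn2+, EGTA, DTT; compounds 0.32–1000 nM final. EDTA stop, Eu-anti-phosphopeptide TR-FRET read (665 nm); IC50 from % inhibition versus DMSO, binned A–D at 10, 50, 100 nM.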
# T1 sequence (Q92918 whole entry): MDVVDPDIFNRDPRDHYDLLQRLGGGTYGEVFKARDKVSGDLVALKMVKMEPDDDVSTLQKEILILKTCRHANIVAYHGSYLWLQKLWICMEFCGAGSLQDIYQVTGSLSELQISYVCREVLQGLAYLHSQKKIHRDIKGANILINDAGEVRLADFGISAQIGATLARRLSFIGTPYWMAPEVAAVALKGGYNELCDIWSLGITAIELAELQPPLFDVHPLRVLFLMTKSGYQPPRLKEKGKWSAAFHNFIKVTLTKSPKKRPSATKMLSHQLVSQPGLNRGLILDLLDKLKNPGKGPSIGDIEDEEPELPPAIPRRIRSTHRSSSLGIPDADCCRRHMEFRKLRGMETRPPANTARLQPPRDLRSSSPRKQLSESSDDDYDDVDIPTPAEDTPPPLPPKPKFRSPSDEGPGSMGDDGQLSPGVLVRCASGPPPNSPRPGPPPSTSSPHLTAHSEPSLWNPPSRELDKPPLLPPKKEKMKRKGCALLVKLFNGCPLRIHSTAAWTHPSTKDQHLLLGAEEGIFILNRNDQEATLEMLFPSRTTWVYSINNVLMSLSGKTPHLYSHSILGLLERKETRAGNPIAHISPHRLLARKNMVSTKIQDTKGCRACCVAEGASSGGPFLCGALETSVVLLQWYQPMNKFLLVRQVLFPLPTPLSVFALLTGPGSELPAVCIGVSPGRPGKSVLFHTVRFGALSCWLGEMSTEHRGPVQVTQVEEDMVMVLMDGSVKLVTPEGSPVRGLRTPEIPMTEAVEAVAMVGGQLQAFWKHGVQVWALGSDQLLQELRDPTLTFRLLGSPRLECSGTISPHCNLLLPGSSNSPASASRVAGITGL
row,SMILES,IC50 [nM]
1,"COc1cccc(F)c1-c1nccc(Nc2cc(N3CCC[C@H](O)C3)c(C(=O)N[C@@H]3CCN(C)C3)cn2)n1 [Example 192, 6-((2-(2-fluoro-6-methoxyphenyl)pyrimidin-4-yl)amino)-4-((S)-3-hydroxypiperidin-1-yl)-N-((R)-1-methylpyrrolidin-3-yl)nicotinamide]",10 to 50
2,"COc1cccc(F)c1-c1nccc(Nc2cc(N3CCC[C@H](O)C3)c(-c3ccc(CN4CC[C@H](F)C4)nc3)cn2)n1 [Example 39, (S)-1-(6-((2-(2-fluoro-6-methoxyphenyl)pyrimidin-4-yl)amino)-6′-(((S)-3-fluoropyrrolidin-1-yl)methyl)-[3,3′-bipyridin]-4-yl)piperidin-3-ol]",≤ 10
3,"COc1cc(F)cc(F)c1-c1nc(Nc2cc(N3CCC[C@H](O)C3)c(-c3cnn(C(F)F)c3)cn2)ccc1N [Example 184, (3S)-1-(2-((5-amino-6-(2,4-difluoro-6-methoxyphenyl)pyridin-2-yl)amino)-5-(1-(difluoromethyl)-1H-pyrazol-4-yl)pyridin-4-yl)piperidin-3-ol]",≤ 10
4,"COc1cccc(F)c1-c1nc(Nc2cc(N3CCC[C@H](O)C3)c(-c3cnn(C(F)F)c3)cn2)ccc1[N+](=O)[O-] [Example 145, (3S)-1-(5-(1-(difluoromethyl)-1H-pyrazol-4-yl)-2-((6-(2-fluoro-6-methoxyphenyl)-5-nitropyridin-2-yl)amino)pyridin-4-yl)piperidin-3-ol]",≤ 10
5,"COc1cc(F)cc(F)c1-c1nccc(Nc2cc(N3CCC[C@H](O)C3)c(-c3cnn(CC(F)(F)F)c3)cn2)n1 [Example 174, (S)-1-(2-((2-(2,4-difluoro-6-methoxyphenyl)pyrimidin-4-yl)amino)-5-(1-(2,2,2-trifluoroethyl)-1H-pyrazol-4-yl)pyridin-4-yl)piperidin-3-ol]",≤ 10
6,"COc1cccc(F)c1-c1nccc(Nc2cc(N3CCC[C@H](N)C3)c(-c3cnc(C4CCN(C)CC4)s3)cn2)n1 [Example 98, (S)-N-(4-(3-aminopiperidin-1-yl)-5-(2-(1-methylpiperidin-4-yl)thiazol-5-yl)pyridin-2-yl)-2-(2-fluoro-6-methoxyphenyl)pyrimidin-4-amine hydrochloride]",≤ 10
7,"COc1cccc(F)c1-c1nccc(Nc2cc(N3CCC(CO)(CC(F)F)CC3)c(-c3cnn(C4CCOCC4)c3)cn2)n1 [Example 47, (4-(2,2-difluoroethyl)-1-(2-((2-(2-fluoro-6-methoxyphenyl)pyrimidin-4-yl)amino)-5-(1-(tetrahydro-2H-pyran-4-yl)-1H-pyrazol-4-yl)pyridin-4-yl)piperidin-4-yl)methanol]",≤ 10
8,"Nc1cncc(-c2nccc(Nc3cc(N4CCC[C@H](O)C4)c(C(=O)C4CC4)cn3)n2)c1 [Example 2, (S)-(6-((2-(5-aminopyridin-3-yl)pyrimidin-4-yl)amino)-4-(3-hydroxypiperidin-1-yl)pyridin-3-yl)(cyclopropyl)methanone]",10 to 50
9,"COc1cccc(F)c1-c1nccc(Nc2cc(N3CCN(C)CC3)c(-c3cnn(C4CCOCC4)c3)cn2)n1 [Example 68, 2-(2-fluoro-6-methoxyphenyl)-N-(4-(4-methylpiperazin-1-yl)-5-(1-(tetrahydro-2H-pyran-4-yl)-1H-pyrazol-4-yl)pyridin-2-yl)pyrimidin-4-amine]",10 to 50
10,"COc1cccc(F)c1-c1nccc(Nc2cc(N3CCC[C@H](N)C3)c(-c3cnn(CC(=O)N(C)C)c3)cn2)n1 [Example 132, (S)-2-(4-(4-(3-aminopiperidin-1-yl)-6-((2-(2-fluoro-6-methoxyphenyl)pyrimidin-4-yl)amino)pyridin-3-yl)-1H-pyrazol-1-yl)-N,N-dimethylacetamide hydrochloride]",≤ 10
11,"COc1cccc(F)c1-c1nc(Nc2cc(N3CCC[C@H](O)C3)c(-c3cnn(C4CCOCC4)c3)cn2)ccc1[N+](=O)[O-] [Example 41, (3S)-1-(2-((6-(2-fluoro-6-methoxyphenyl)-5-nitropyridin-2-yl)amino)-5-(1-(tetrahydro-2H-pyran-4-yl)-1H-pyrazol-4-yl)pyridin-4-yl)piperidin-3-ol]",≤ 10
12,"COc1cccc(F)c1-c1nccc(Nc2cc(N3CCC[C@H](N)C3)c(C#CC3CCOCC3)cn2)n1 [Example 79, (S)-N-(4-(3-aminopiperidin-1-yl)-5-((tetrahydro-2H-pyran-4-yl)ethynyl)pyridin-2-yl)-2-(2-fluoro-6-methoxyphenyl)pyrimidin-4-amine hydrochloride]",≤ 10
13,"COc1cccc(F)c1-c1nccc(Nc2cc(N3CCC(CCN(C)C)CC3)c(-c3cnn(C(F)F)c3)cn2)n1 [Example 147, N-(5-(1-(difluoromethyl)-1H-pyrazol-4-yl)-4-(4-(2-(dimethylamino)ethyl)piperidin-1-yl)pyridin-2-yl)-2-(2-fluoro-6-methoxyphenyl)pyrimidin-4-amine]",≤ 10
14,"COc1cc(F)cc(F)c1-c1nccc(Nc2cc(N3CCC[C@H](N)C3)c(-c3cnn(CC(F)F)c3)cn2)n1 [Example 158, (S)-N-(4-(3-aminopiperidin-1-yl)-5-(1-(2,2-difluoroethyl)-1H-pyrazol-4-yl)pyridin-2-yl)-2-(2,4-difluoro-6-methoxyphenyl)pyrimidin-4-amine hydrochloride]",≤ 10
15,"COc1cccc(F)c1-c1nc(Nc2cc(N3CCC[C@H](N)C3)c(-c3cnn(C4CCOCC4)c3)cn2)ccc1N [Example 181, N^2-(4-((S)-3-aminopiperidin-1-yl)-5-(1-(tetrahydro-2H-pyran-4-yl)-1H-pyrazol-4-yl)pyridin-2-yl)-6-(2-fluoro-6-methoxyphenyl)pyridin-2,5-diamine hydrochloride]",≤ 10

# The next lines start with the values.
row,IC50 [nM],SMILES
1,≤ 10,"COc1cc(F)cc(F)c1-c1nccc(Nc2cc(N3CCC[C@H](N)C3)c(C#CCCO)cn2)n1 [Example 314, (S)-4-(4-(3-aminopiperidin-1-yl)-6-((2-(2,4-difluoro-6-methoxyphenyl)pyrimidin-4-yl)amino)pyridin-3-yl)but-3-yn-1-ol]"
2,≤ 10,"COc1cccc(F)c1-c1nccc(Nc2cc(N3CCC[C@H](N)C3)c(-c3cnn(C4COC4)c3)cn2)n1 [Example 277, (S)-N-(4-(3-aminopiperidin-1-yl)-5-(1-(oxetan-3-yl)-1H-pyrazol-4-yl)pyridin-2-yl)-2-(2-fluoro-6-methoxyphenyl)pyrimidin-4-amine hydrochloride]"
3,≤ 10,"COc1cccc(F)c1-c1nc(Nc2cc(N3CCC[C@H](O)C3)c(-c3cnn(CC(F)(F)F)c3)cn2)ccc1C#N [Example 316, 2-(2-fluoro-6-methoxyphenyl)-6-((4-((S)-3-hydroxypiperidin-1-yl)-5-(1-(2,2,2-trifluoroethyl)-1H-pyrazol-4-yl)pyridin-2-yl)amino)nicotinonitrile]"
4,≤ 10,"COc1cccc(F)c1-c1nccc(Nc2cc(N3CCC[C@H](N)C3)c(-c3ccc(F)c(F)c3)cn2)n1 [Example 294, (S)-N-(4-(3-aminopiperidin-1-yl)-5-(3,4-difluorophenyl)pyridin-2-yl)-2-(2-fluoro-6-methoxyphenyl)pyrimidin-4-amine hydrochloride]"
5,≤ 10,"COc1cccc(F)c1-c1nccc(Nc2cc(N3CCC[C@H](N)C3)c(-c3cc(C)c(OC(C)C)c(C)c3)cn2)n1 [Example 284, (S)-N-(4-(3-aminopiperidin-1-yl)-5-(4-isopropoxy-3,5-dimethylphenyl)pyridin-2-yl)-2-(2-fluoro-6-methoxyphenyl)pyrimidin-4-amine hydrochloride]"
6,≤ 10,"COc1cc(F)cc(F)c1-c1nc(Nc2cc(N3CCC[C@H](O)C3)c(-c3cnn(CC(F)(F)F)c3)cn2)ccc1C#N [Example 317, 2-(2,4-difluoro-6-methoxyphenyl)-6-((4-((S)-3-hydroxypiperidin-1-yl)-5-(1-(2,2,2-trifluoroethyl)-1H-pyrazol-4-yl)pyridin-2-yl)amino)nicotinonitrile]"
7,≤ 10,"COc1cccc(F)c1-c1nccc(Nc2cc(N3CCC[C@H](N)C3)c(-c3cnn(CC(C)(C)O)c3)cn2)n1 [Example 235, (S)-1-(4-(4-(3-aminopiperidin-1-yl)-6-((2-(2-fluoro-6-methoxyphenyl)pyrimidin-4-yl)amino)pyridin-3-yl)-1H-pyrazol-1-yl)-2-methylpropan-2-ol hydrochloride]"
8,≤ 10,"COc1cccc(F)c1-c1nccc(Nc2cc(N3CCC[C@H](N)C3)c(-c3cc(C)c4c(c3)CCC(=O)N4)cn2)n1 [Example 262, (S)-6-(4-(3-aminopiperidin-1-yl)-6-((2-(2-fluoro-6-methoxyphenyl)pyrimidin-4-yl)amino)pyridin-3-yl)-8-methyl-3,4-dihydroquinolin-2(1H)-one hydrochloride]"
9,≤ 10,"COc1cccc(F)c1-c1nccc(Nc2cc(N3CCC[C@H](N)C3)c(-c3ccc(C4CCNCC4)nc3)cn2)n1 [Example 248, (S)-4-(3-aminopiperidin-1-yl)-N-(2-(2-fluoro-6-methoxyphenyl)pyrimidin-4-yl)-6′-(piperidin-4-yl)-[3,3′-bipyridin]-6-amine hydrochloride]"
10,≤ 10,"COc1cc(F)cc(F)c1-c1nccc(Nc2cc(N3CCC[C@H](O)C3)c(C#Cc3cnn(CC(F)(F)F)c3)cn2)n1 [Example 220, (S)-1-(2-((2-(2,4-difluoro-6-methoxyphenyl)pyrimidin-4-yl)amino)-5-((1-(2,2,2-trifluoroethyl)-1H-pyrazol-4-yl)ethynyl)pyridin-4-yl)piperidin-3-ol]"
11,≤ 10,"COc1cc(F)cc(F)c1-c1nc(Nc2cc(N3CC[C@@H](F)[C@H](N)C3)c(-c3cnn(C(C)C)c3)cn2)ccc1C#N [Example 340, 6-((4-((3R,4R)-3-amino-4-fluoropiperidin-1-yl)-5-(1-isopropyl-1H-pyrazol-4-yl)pyridin-2-yl)amino)-2-(2,4-difluoro-6-methoxyphenyl)nicotinonitrile hydrochloride]"
